Measurements taken from ChEMBL document CHEMBL3745675, “Design and optimization of selective azaindole amide M1 positive allosteric modulators” (Bioorg Med Chem Lett, 2016).

Key:
[1] = Permeability in RRCK cells; type: ADME, cell-based, Canis lupus familiaris, MDCKII-LE; details: dog, MDCK; read-out: permeability
[2] = Ratio of unbound AUC in brain to plasma in C57BL/6j mouse; type: ADME, organism-based; details: read-out: Ratio AUC
Plasma = experiment: Fraction unbound in C57BL/6j mouse plasma; type: ADME, cell-free

Structure (SMILES) | Papp [1] [×10⁻⁶ cm/s] | Kp uu [2] | Cp(f) (Plasma) [nM]
O=C(N[C@H]1CCOC[C@@H]1O)c1cn(Cc2ccc(-n3cccn3)cc2)c2cccnc12 | 21.7 | 0.04 | 0.13
O=C(N[C@H]1CCOC[C@@H]1O)c1cn(Cc2ccc(-c3cc[nH]n3)cc2)c2cccnc12 | 14 | – | –
